# Laboratory results published in patent US11591341B2 (ALIGOS THERAPEUTICS, INC., priority 2019, dated 2023).
# Test system: HBV
# Test: HBV-DNA Antiviral Assay Using HepG2.117 Cells (intracellular HBV DNA by qPCR)
# Format: cell-based, hepatitis B virus (genotype D)
# Settings: Hepatitis B virus, HepG2.117
# Outline: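 HepG2.117 cells (genotype D HBV, Tet-off) were induced by doxycycline withdrawal and treated for 3 days with 9 concentrations in 4-fold dilution, 2% DMSO final. Intracellular HBV DNA was measured by qPCR against a standard curve, with ATPlite viability read in parallel. EC50, EC90 and CC50 came from fits against the DMSO control.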
structure (smiles),measurement,value
"C[C@@H](NC(=O)c1c2n(c(=O)n1-c1ccc(OCC(F)(F)F)cc1)CCN(C(=O)c1ccc(Br)c(Cl)c1)C2)c1ccc(OC(C)(C)C(N)=O)cc1F (stereo in doubt) [Example 337, 7-(4-bromo-3-chloro-benzoyl)-3-oxo-N-[rac-(1R)-1-[4-(2-amino-1,1-dimethyl-2-oxo-ethoxy)-2-fluoro-phenyl]ethyl]-2-[4-(2,2,2-trifluoroethoxy)phenyl]-6,8-dihydro-5H-imidazo[1,5-a]pyrazine-1-carboxamide]",EC50,100 to 500 nM
"C[C@H](NC(=O)c1c2n(c(=O)n1-c1ccc(OC3CC3)cc1)CCN(C(=O)c1ccc(Br)c(Cl)c1)C2)c1ccc(OC(C)(C)C(N)=O)cc1F (stereo in doubt) [Example 338, 7-(4-bromo-3-chloro-benzoyl)-2-[4-(cyclopropoxy)phenyl]-3-oxo-N-[rac-(1S)-1-[4-(2-amino-1,1-dimethyl-2-oxo-ethoxy)-2-fluoro-phenyl]ethyl]-6,8-dihydro-5H-imidazo[1,5-a]pyrazine-1-carboxamide]",EC50,100 to 500 nM
"C[C@@H](NC(=O)c1c2n(c(=O)n1-c1ccc(OC3CC3)cc1)CCN(C(=O)c1ccc(Br)c(Cl)c1)C2)c1ccc(OC(C)(C)C(N)=O)cc1F (stereo in doubt) [Example 339, 7-(4-bromo-3-chloro-benzoyl)-2-[4-(cyclopropoxy)phenyl]-3-oxo-N-[rac-(1R)-1-[4-(2-amino-1,1-dimethyl-2-oxo-ethoxy)-2-fluoro-phenyl]ethyl]-6,8-dihydro-5H-imidazo[1,5-a]pyrazine-1-carboxamide]",EC50,100 to 500 nM
"C[C@@H](NC(=O)c1c2n(c(=O)n1-c1ccc(OC3CC3)cc1)CCN(C(=O)c1ccc(Br)c(Cl)c1)C2)c1ccc(OCC#N)cc1F (stereo in doubt) [Example 342, 7-(4-bromo-3-chloro-benzoyl)-2-[4-(cyclopropxy)phenyl]-3-oxo-N-[rac-(1R)-1-[4-(cyanomethoxy)-2-fluoro-phenyl]ethyl]-6,8-dihdyro-5H-imidazo[1,5-a]pyrazine-1-carboxamide]",EC50,100 to 500 nM
"C[C@H](NC(=O)c1c2n(c(=O)n1-c1ccc(OC3CC3)cc1)CCN(C(=O)c1ccc(Br)c(Cl)c1)C2)c1ccc(OCC#N)cc1F (stereo in doubt) [Example 343, 7-(4-bromo-3-chloro-benzoyl)-2-[4-(cyclopropoxy)phenyl]-3-oxo-N-[rac-(1S)-1-[4-(cyanomethoxy)-2-fluoro-phenyl]ethyl]-6,8-dihydro-5H-imidazo[1,5-a]pyrazine-1-carboxamide]",EC50,100 to 500 nM
"C[C@@H](NC(=O)c1c2n(c(=O)n1-c1ccc(OCC(F)(F)F)cc1)CCN(C(=O)c1ccc(Br)c(Cl)c1)C2)c1ccc(OCC#N)cc1F (stereo in doubt) [Example 344, 7-(4-bromo-3-chloro-benzoyl)-3-oxo-N-[rac-(1R)-1-[4-(cyanomethoxy)-2-fluoro-phenyl]ethyl]-2-[4-(2,2,2-trifluoroethoxy)phenyl]-6,8-dihydro-5H-imidazo[1,5-a]pyrazine-1-carboxamide]",EC50,500 to 5000 nM
"C[C@H](NC(=O)c1c2n(c(=O)n1-c1ccc(OCC(F)(F)F)cc1)CCN(C(=O)c1ccc(Br)c(Cl)c1)C2)c1ccc(OCC#N)cc1F (stereo in doubt) [Example 345, 7-(4-bromo-3-chloro-benzoyl)-3-oxo-N-[rac-(1S)-1-[4-(cyanomethoxy)-2-fluoro-phenyl]ethyl]-2-[4-(2,2,2-trifluoroethoxy)phenyl]-6,8-dihydro-5H-imidazo[1,5-a]pyrazine-1-carboxamide]",EC50,100 to 500 nM
"C[C@@H](NC(=O)c1c2n(c(=O)n1-c1ccc(OC3CC3)cc1)CCN(C(=O)c1ccc(Br)c(Cl)c1)C2)c1ccc(OC2COC2)cc1F (stereo in doubt) [Example 346, 7-(4-bromo-3-chloro-benzoyl)-2-[4-(cyclopropoxy)phenyl]-3-oxo-N-[rac-(1R)-1-[2-fluoro-4-(oxetan-3-yloxy)phenyl]ethyl]-6,8-dihydro-5H-imidazo[1,5-a]pyrazine-1-carboxamide]",EC50,100 to 500 nM
"C[C@H](NC(=O)c1c2n(c(=O)n1-c1ccc(OC3CC3)cc1)CCN(C(=O)c1ccc(Br)c(Cl)c1)C2)c1ccc(OC2COC2)cc1F (stereo in doubt) [Example 347, 7-(4-bromo-3-chloro-benzoyl)-2-[4-(cyclopropoxy)phenyl]-3-oxo-N-[rac-(1S)-1-[2-fluoro-4-(oxetan-3-yloxy)phenyl]ethyl]-6,8-dihydro-5H-imidazo[1,5-a]pyrazine-1-carboxamide]",EC50,100 to 500 nM
"C[C@H](Oc1ccc(CNC(=O)c2c3n(c(=O)n2-c2ccc(OCC(F)(F)F)cc2)CCN(C(=O)c2ccc(Br)c(Cl)c2)C3)c(F)c1)C(N)=O (stereo in doubt) [Example 353, 7-(4-bromo-3-chloro-benzoyl)-N-[[2-fluoro-4-[rac-(1S)-2-amino-1-methyl-2-oxo-ethoxy]phenyl]methyl]-3-oxo-2-[4-(2,2,2-trifluoroethoxy)phenyl]-6,8-dihydro-5H-imidazo[1,5-a]pyrazine-1-carboxamide]",EC50,500 to 5000 nM
"C[C@@H](Oc1ccc(CNC(=O)c2c3n(c(=O)n2-c2ccc(OCC(F)(F)F)cc2)CCN(C(=O)c2ccc(Br)c(Cl)c2)C3)c(F)c1)C(N)=O (stereo in doubt) [Example 354, 7-(4-bromo-3-chloro-benozyl)-N-[[2-fluoro-4-[rac-(1R)-2-amino-1-methyl-2-oxo-ethoxy]phenyl]methyl]-3-oxo-2-[4-(2,2,2-trifluoroethoxy)phenyl]-6,8-dihydro-5H-imidazo[1,5-a]pyrazine-1-carboxamide]",EC50,500 to 5000 nM
"C[C@@H](Oc1ccc([C@@H](C)NC(=O)c2c3n(c(=O)n2-c2ccc(OC4CC4)cc2)CCN(C(=O)c2ccc(Br)c(Cl)c2)C3)c(F)c1)C(N)=O (stereo in doubt) [Example 355, 7-(4-bromo-3-chloro-benzoyl)-2-[4-(cyclopropoxy)phenyl]-3-oxo-N-[rac-(1R)-1-[2-fluoro-4-[rac-(1R)-2-amino-1-methyl-2-oxo-ethoxy]phenyl]ethyl]-6,8-dihydro-5H-imidazo[1,5-a]pyrazine-1-carboxamide]",EC50,500 to 5000 nM
"C[C@H](Oc1ccc([C@@H](C)NC(=O)c2c3n(c(=O)n2-c2ccc(OC4CC4)cc2)CCN(C(=O)c2ccc(Br)c(Cl)c2)C3)c(F)c1)C(N)=O (stereo in doubt) [Example 356, 7-(4-bromo-3-chloro-benzoyl)-2-[4-(cyclopropoxy)phenyl]-3-oxo-N-[rac-(1R)-1-[2-fluoro-4-[rac-(1S)-2-amino-1-methyl-2-oxo-ethoxy]phenyl]ethyl]-6,8-dihydro-5H-imidazo[1,5-a]pyrazine-1-carboxamide]",EC50,100 to 500 nM
"C[C@H](NC(=O)c1c2n(c(=O)n1-c1ccc(OC3CC3)cc1)CCN(C(=O)c1ccc(Br)c(Cl)c1)C2)c1ccc(O[C@H](C)C(N)=O)cc1F (stereo in doubt) [Example 357, 7-(4-bromo-3-chloro-benzoyl)-2-[4-(cyclopropoxy)phenyl]-3-oxo-N-[rac-(1S)-1-[2-fluoro-4-[rac-(1R)-2-amino-1-methyl-2-oxo-ethoxy]phenyl]ethyl]-6,8-dihydro-5H-imidazo[1,5-a]pyrazine-1-carboxamide]",EC50,100 to 500 nM
"C[C@H](Oc1ccc([C@H](C)NC(=O)c2c3n(c(=O)n2-c2ccc(OC4CC4)cc2)CCN(C(=O)c2ccc(Br)c(Cl)c2)C3)c(F)c1)C(N)=O (stereo in doubt) [Example 358, 7-(4-bromo-3-chloro-benzoyl)-2-[4-(cyclopropoxy)phenyl]-3-oxo-N-[rac-(1S)-1-[2-fluoro-4-[rac-(1S)-2-amino-1-methyl-2-oxo-ethoxy]phenyl]ethyl]-6,8-dihydro-5H-imidazo[1,5-a]pyrazine-1-carboxamide]",EC50,< 100 nM
"C[C@@H](Oc1ccc([C@@H](C)NC(=O)c2c3n(c(=O)n2-c2ccc(OCC(F)(F)F)cc2)CCN(C(=O)c2ccc(Br)c(Cl)c2)C3)c(F)c1)C(N)=O (stereo in doubt) [Example 359, 7-(4-bromo-3-chloro-benzoyl)-3-oxo-N-[rac-(1R)-1-[2-fluoro-4-[rac-(1R)-2-amino-1-methyl-2-oxo-ethoxy]phenyl]ethyl]-2-[4-(2,2,2-trifluoroethoxy)phenyl]-6,8-dihydro-5H-imidazo[1,5-a]pyrazine-1-carboxamide]",EC50,500 to 5000 nM
"C[C@H](Oc1ccc([C@@H](C)NC(=O)c2c3n(c(=O)n2-c2ccc(OCC(F)(F)F)cc2)CCN(C(=O)c2ccc(Br)c(Cl)c2)C3)c(F)c1)C(N)=O (stereo in doubt) [Example 360, 7-(4-bromo-3-chloro-benzoyl)-3-oxo-N-[rac-(1R)-1-[2-fluoro-4-[rac-(1S)-2-amino-1-methyl-2-oxo-ethoxy]phenyl]ethyl]-2-[4-(2,2,2-trifluoroethoxy)phenyl]-6,8-dihydro-5H-imidazo[1,5-a]pyrazine-1-carboxamide]",EC50,500 to 5000 nM
"C[C@H](NC(=O)c1c2n(c(=O)n1-c1ccc(OCC(F)(F)F)cc1)CCN(C(=O)c1ccc(Br)c(Cl)c1)C2)c1ccc(O[C@H](C)C(N)=O)cc1F (stereo in doubt) [Example 361, 7-(4-bromo-3-chloro-benzoyl)-3-oxo-N-[rac-(1S)-1-[2-fluoro-4-[rac-(1R)-2-amino-1-methyl-2-oxo-ethoxy]phenyl]ethyl]-2-[4-(2,2,2-trifluoroethoxy)phenyl]-6,8-dihydro-5H-imidazo[1,5-a]pyrazine-1-carboxamide]",EC50,100 to 500 nM
"C[C@H](Oc1ccc([C@H](C)NC(=O)c2c3n(c(=O)n2-c2ccc(OCC(F)(F)F)cc2)CCN(C(=O)c2ccc(Br)c(Cl)c2)C3)c(F)c1)C(N)=O (stereo in doubt) [Example 362, 7-(4-bromo-3-chloro-benzoyl)-3-oxo-N-[rac-(1S)-1-[2-fluoro-4-[rac-(1S)-2-amino-1-methyl-2-oxo-ethoxy]phenyl]ethyl]-2-[4-(2,2,2-trifluoroethoxy)phenyl]-6,8-dihydro-5H-imidazo[1,5-a]pyrazine-1-carboxamide]",EC50,100 to 500 nM
